{"source": "patent US20130203602A1", "about": "“SUPPORTED BIOLOGICALLY ACTIVE COMPOUNDS” (Danmarks Tekniske Universitet, priority 2010, published 2013)", "experiment": "Thermal stability determination by thermogravimetric analysis (TGA)", "type": "physicochemical", "conditions": "for T5% onset temperature / Inflection point: not supported/neat; for T5% onset temperature: TGA 5° C./min, under nitrogen; for Inflection point: TGA 25-800° C., 5° C./min, under air; for temperature at which it starts to decompose: heated neat", "note": "Marks after values point to notes of the source that are not given here."}
{"molecule": "CC(C)Cc1ccc(C(C)C(=O)O)cc1", "note": "(stereo not shown) [Tetrabutylphosphonium Ibuprofenate [7]]", "values": [{"measurement": "T5% onset temperature", "value": "236* ° C."}]}
{"molecule": "CC(C)Cc1ccc(C(C)C(=O)O)cc1.CCN(CC)CC(=O)Nc1c(C)cccc1C", "note": "[[8], Lidocainium Ibuprofenate]", "values": [{"measurement": "T5%onset", "setting": "neat compound, given with the synthesis example", "value": 177, "unit": "°C"}]}
{"molecule": "Nc1nc2c(ncn2COCCO)c(=O)[nH]1", "note": "[Trimethylhexadecylammonium acyclovir [3]] [Trimethylhexadecylammonium Aciclovir]", "values": [{"measurement": "Inflection point", "value": 189, "unit": "°C"}]}
{"molecule": "O=C(O)CNCP(=O)(O)O", "note": "[Tetraethylammonium Glyphosate [6], Tetraethylammonium Glyphosate]", "values": [{"measurement": "Inflection point", "value": 150, "unit": "°C"}]}
{"molecule": "Tributylmethylammonium Acyclovir [Tributylmethylammonium Acyclovir [2]]", "values": [{"measurement": "Inflection point", "value": 203, "unit": "°C"}]}
{"molecule": "CC(C)Cc1ccc(C(C)C(=O)O)cc1", "note": "(stereo not shown) [Ibuprofene, reference compound]", "values": [{"measurement": "temperature at which it starts to decompose", "value": "around 150 °C"}, {"measurement": "T5% onset temperature", "value": "155* ° C."}]}
{"molecule": "Itraconazolium Dioctylsulfosuccinate [Itraconazolium Dioctylsulfosuccinate [5]]", "values": [{"measurement": "Inflection point", "value": 257, "unit": "°C"}]}
{"molecule": "Nc1nc2c(ncn2COCCO)c(=O)[nH]1", "note": "[Acyclovir, reference compound]", "values": [{"measurement": "temperature at which it starts to decompose", "value": "around 249 °C"}, {"measurement": "Inflection point", "value": 249, "unit": "°C"}]}
